Measured values: US20060275854A1, “Method for monitoring reactions in real time” (priority 2003, published 2006)
“Also recorded” adds a separate entry of the source.

Assays:
[1] = test system: anti-ATP signaling aptamer; experiment: Fluorescence signaling of the structure-switching ATP aptamer reporter on target addition; format: binding; settings: for fluorescence intensity increase over the background reading: 750 μM target, FIG. 1B
porcine ALP [2] = settings: known inhibitors; cited from earlier work
calf intestine ALP = settings: known; cited from earlier work
porcine ALP [3] = settings: 0.1 mM compound, 0.75 mM AMP, FIG. 5A
Description: The resulting mixture was incubated for another 10 min, followed by the addition of 5 units of porcine ALP (resulting in a concentration of 0.01 units/μL) and further incubation for 75 more minutes. The fluorescence intensity (FALP) was monitored continuously. For the same compound, the fluorescence intensity (FNoALP) of a control reaction with the addition of porcine ALP was also recorded in the same way.

[4] = test system: Adenosine Deaminase (ADA); experiment: Adenosine deaminase activity and inhibition monitored by signaling aptamer; format: biochemical
Description: Adenosine deaminase transforms adenosine into inosine. […] Thus conversion from adenosine to inosine results in a decrease in fluorescent signal. […] EHNA is a known inhibitor of adenosine deaminase.
After 3 minutes, different concentrations of EHNA.HC1, an adenosine deaminase inhibitor, in DMSO were introduced: no inhibitor (blue line), 100 nM inhibitor (green line) and 10 μM inhibitor (red line). The solutions were further incubated for 5 more minutes. […] Finally, the solutions were exposed to an enzyme, called Adenosine Deaminase (ADA), which transforms adenosine into inosine. The aptamer has no affinity for the inosine, so the transformation should induce the disruption of the aptamer—adenosine complex state and the formation of a duplex state with the QDNA.

Compound: Nc1ncnc2c1ncn2[C@@H]1O[C@H](COP(=O)(O)OP(=O)(O)O)[C@@H](O)[C@H]1O [ADP, adenosine 5′-diphosphate]
- fluorescence intensity increase over the background reading [1]: 8.3 fold

Compound: Nc1ncnc2c1ncn2[C@@H]1O[C@H](COP(=O)(O)OP(=O)(O)OP(=O)(O)O)[C@@H](O)[C@H]1O [ATP, adenosine 5′-triphosphate]
- fluorescence intensity increase over the background reading [1]: 6.9 fold

Compound: OC[C@H]1O[C@@H](n2cnc3c(O)ncnc32)[C@H](O)[C@@H]1O [inosine]
- affinity of the signaling aptamer for the substance (in words) [1]: virtually no affinity; also recorded: no affinity at all

Compound: Cl.c1ccc(C2CN3CCSC3=N2)cc1 (single isomer, unassigned; (-)) [Levamisole, (−) 2,3,5,6-Tetrahydro-6-phenylimidazo[2,1-b]thiazole hydrochloride]
- Ki (porcine ALP [2]): low mM range
- inhibition of calf intestine ALP (in words) (calf intestine ALP): not calf intestine ALP
- rate of transformation of AMP to adenosine relative to the uninhibited reaction (porcine ALP [3]): considerably reduced

Compound: CCCCCC[C@@H]([C@@H](C)O)n1cnc2c(N)ncnc21.Cl [EHNA]
- rate of deamination ([4]; 100 nM inhibitor, 1 mM adenosine): slower
- rate of deamination ([4]; 10 μM inhibitor, 1 mM adenosine): virtually stopped
- rate of deamination ([4]; 10 μM inhibitor, 1 mM adenosine, listed as EHNA.HC1): almost no deamination
- rate of deamination ([4]; 100 mM EHNA, FIG. 6): reduced

Compound: Nc1ncnc2c1ncn2[C@@H]1O[C@H](COP(=O)(O)O)[C@@H](O)[C@H]1O [AMP, adenosine 5′-monophosphate]
- affinity of the signaling aptamer for the substance (in words) [1]: moderate affinity
- fluorescence intensity increase over the background reading [1]: 5.3 fold

Compound: Cl.c1ccc(C2CN3CCSC3=N2)cc1 (racemic) [Tetramisole, (±) 2,3,5,6-Tetrahydro-6-phenylimidazo[2,1-b]thiazole hydrochloride]
- Ki (porcine ALP [2]): low mM range
- inhibition of calf intestine ALP (in words) (calf intestine ALP): not calf intestine ALP
- rate of transformation of AMP to adenosine relative to the uninhibited reaction (porcine ALP [3]): considerably reduced

Compound: Nc1ncnc2c1ncn2[C@@H]1O[C@H](CO)[C@@H](O)[C@H]1O [adenosine]
- affinity of the signaling aptamer for the substance (in words) [1]: higher affinity
- fluorescence intensity increase over the background reading [1]: 8.1 fold
